≈ marks a conversion by molar mass, not a printed value. Read-outs that look alike come from different tables or passages of the source. Positions of bridges follow the written chain, without caps; N, C: chain ends. Residues, ends and D or L forms follow the SMILES beside them. No end group written: not given here.
Experiments:
horse erythrocytes = test: Haemolytic activity; assay type: cell-based; conditions: 128 μM peptide; horse erythrocytes 2% v/v, 37°C, 2 h; 0.1% Triton X‐100 positive control; absorbance 570 nm; three independent runs
Description: The haemolytic activity of peptides was conducted using horse erythrocytes (2%, v/v). Peptide solutions were mixed with washed horse erythrocyte suspension at 37°C for 2 h. Triton X‐100 (0.1%) was used as a positive control. The mixture was then centrifuged at 930 g for 5 min. The absorbance of the supernatants was detected at 570 nm. The haemolysis rate was calculated using the formula: Haemolysis%=Sample group−negative group/positive group−negative group×100%.
This experiment was performed in three independent runs.

C. albicans ATCC 10231 = assay type: cell-based, Candida albicans
Description: (§1) Antimicrobial assays were conducted using standard broth micro‐dilutions, as mentioned previously.[11] Gram‐positive bacteria S. aureus (ATCC 6538), Methicillin‐resistant S. aureus (MRSA; NCTC 12493), […] (NCTC 12697), Gram‐negative bacteria Escherichia coli (ATCC 8739), Klebsiella pneumoniae (ATCC 43816), Pseudomonas aeruginosa (ATCC 9027), Acinetobacter baumannii (ATCC BAA 747), and yeast, Candida albicans (ATCC 10231) were used in the test. The experiments were conducted in three independent runs.

[1] = system: Gram‐positive and Gram‐negative test bacteria; assay type: cell-based
Description: as §1

P. aeruginosa ATCC 9027 [2] = assay type: cell-based, Pseudomonas aeruginosa
Description: as §1

E. faecalis NCTC 12697 [3] = assay type: cell-based
S. aureus ATCC 6538 [4] = assay type: cell-based, Staphylococcus aureus
Description: as §1

K. pneumoniae ATCC 43816 = assay type: cell-based, Klebsiella pneumoniae
Description: as §1

E. coli ATCC 8739 [5] = assay type: cell-based, Escherichia coli
Description: as §1

[6] = system: Gram‐positive and Gram‐negative test bacteria; assay type: cell-based; conditions: geometric mean of MICs against the three Gram‐negative strains
MRSA NCTC 12493 [7] = assay type: cell-based, Methicillin‐resistant S. aureus
Description: as §1

MRSA NCTC 12493 [8] = test: Ex vivo porcine skin infection model; set-up: species or system Methicillin‐resistant S. aureus; conditions: vancomycin 8 μM, 4 h
Description: The antibacterial efficacy of OG9 and OG9c‐De‐NH2 was further evaluated in an ex vivo porcine skin model, as reported.[27] The porcine skin was shaved and cleaned with 70% ethanol and dd H2O. The polyethylene tubing was glued to the cleaned skin surface with cyanoacrylate glue. Exponential or persister cells were inoculated to infect each skin sample. After 15 min of incubation at 37°C, each skin sample was treated with peptides at concentrations of 1 × or 10 × MIC or vancomycin (8 μM). After another 4 h of incubation, each tubing well was washed with PBS. Ten microliters of the mixture in each well was diluted with PBS buffer and spotted on the agar plate. The number of viable bacteria cells was counted after overnight incubation. The experiments were conducted in three independent runs.

S. aureus ATCC 6538 [9] = assay type: cell-based, Staphylococcus aureus; conditions: ATCC 6538, 24 h
Description: (§2) Peptide solutions were first mixed with bacterial cultures (5 × 10^5 CFU/mL) and incubated at 37°C for 24 h. The planktonic bacterial cells were gently removed by washing with PBS the next day, and methanol was utilised to fix the biofilm. Crystal violet (0.1% v/v), PBS and acetic acid (30%, v/v) were subsequently used to stain biofilm, remove remaining stains and re‐dissolve stains, respectively. The absorbance was determined at 595 nm. The experiments were conducted in three independent runs.

E. faecalis NCTC 12697 [10] = assay type: cell-based; conditions: NCTC 12697, 24 h
Description: as §2

E. coli ATCC 8739 [11] = assay type: cell-based, Escherichia coli; conditions: ATCC 8739, 24 h
Description: as §2

MRSA NCTC 12493 [12] = assay type: cell-based, Methicillin‐resistant S. aureus; conditions: NCTC 12493, 24 h
Description: as §2

P. aeruginosa ATCC 9027 [13] = assay type: cell-based, Pseudomonas aeruginosa; conditions: ATCC 9027, 24 h
Description: as §2

[14] = geometric mean of MICs against all test bacteria
[15] = geometric mean of MICs against the three Gram‐positive strains

| Compound | Haemolysis (horse erythrocytes) | MBC (C. albicans ATCC 10231) | MIC (C. albicans ATCC 10231) | GM MIC, total bacteria [1, 14] | GM MIC, G+ [1, 15] | MBC (P. aeruginosa ATCC 9027 [2]) | MIC (P. aeruginosa ATCC 9027 [2]) | MBC (E. faecalis NCTC 12697 [3]) | MIC (E. faecalis NCTC 12697 [3]) | MBC (S. aureus ATCC 6538 [4]) | MIC (S. aureus ATCC 6538 [4]) | MBC (K. pneumoniae ATCC 43816) | MIC (K. pneumoniae ATCC 43816) | MBC (E. coli ATCC 8739 [5]) | MIC (E. coli ATCC 8739 [5]) | GM MIC, G− [6] | MBC (MRSA NCTC 12493 [7]) | MIC (MRSA NCTC 12493 [7]) | other results |
| --- | --- | --- | --- | --- | --- | --- | --- | --- | --- | --- | --- | --- | --- | --- | --- | --- | --- | --- | --- |
| CC[C@H](C)[C@@H]1NC(=O)[C@H](C)NC(=O)[C@@H](NC(=O)[C@H](CC(C)C)NC(=O)[C@@H](NC(=O)[C@H](CCCCN)NC(=O)[C@@H]2CCCN2C(=O)[C@H](CC(C)C)NC(=O)[C@H](Cc2ccccc2)NC(=O)[C@H](CC(N)=O)NC(=O)[C@H](C)NC(=O)[C@H](C)NC(=O)[C@H](CC(C)C)NC(=O)CNC(=O)[C@H](C)NC(=O)[C@@H](NC(=O)[C@H](CC(C)C)NC(=O)[C@@H]2CCCN2C(=O)[C@@H](N)Cc2ccccc2)[C@@H](C)CC)[C@@H](C)CC)CSSC[C@@H](C(=O)O)NC(=O)[C@H](CCCCN)NC(=O)[C@H](CCCNC(=N)N)NC(=O)[C@H](C)NC1=O [OG9a] (H-FPLIAGLAANFLPKILCAIARKC-OH; disulfide 17-23) | 90% | > 128 µM | > 128 µM | 20.2 µM | 10.1 µM | > 128 µM | > 128 µM | 16 µM (≈ 39.1 µg/mL) | 16 µM (≈ 39.1 µg/mL) | 8 µM (≈ 19.5 µg/mL) | 4 µM (≈ 9.77 µg/mL) | 16 µM (≈ 39.1 µg/mL) | 16 µM (≈ 39.1 µg/mL) | 8 µM (≈ 19.5 µg/mL) | 8 µM (≈ 19.5 µg/mL) | 40.3 µM | 16 µM (≈ 39.1 µg/mL) | 16 µM (≈ 39.1 µg/mL) |  |
| CC[C@H](C)[C@@H]1NC(=O)[C@H](C)NC(=O)[C@@H](NC(=O)[C@H](CC(C)C)NC(=O)[C@@H](NC(=O)[C@H](CCCCN)NC(=O)[C@@H]2CCCN2C(=O)[C@H](CC(C)C)NC(=O)[C@H](Cc2ccccc2)NC(=O)[C@H](CC(N)=O)NC(=O)[C@H](C)NC(=O)[C@H](CCCCN)NC(=O)[C@H](CC(C)C)NC(=O)CNC(=O)[C@H](C)NC(=O)[C@@H](NC(=O)[C@H](CC(C)C)NC(=O)[C@@H]2CCCN2C(=O)[C@@H](N)Cc2ccccc2)[C@@H](C)CC)[C@@H](C)CC)CSSC[C@@H](C(=O)O)NC(=O)[C@H](CCCCN)NC(=O)[C@H](CCCNC(=N)N)NC(=O)[C@H](C)NC1=O [OG9b] (H-FPLIAGLKANFLPKILCAIARKC-OH; disulfide 17-23) | 50% | > 128 µM | > 128 µM | 50.8 µM | 161.3 µM | 64 µM (≈ 160 µg/mL) | 32 µM (≈ 80 µg/mL) | > 128 µM | > 128 µM | 128 µM (≈ 320 µg/mL) | 64 µM (≈ 160 µg/mL) | 16 µM (≈ 40 µg/mL) | 16 µM (≈ 40 µg/mL) | 8 µM (≈ 20 µg/mL) | 8 µM (≈ 20 µg/mL) | 16 µM | > 128 µM | > 128 µM |  |
| CC[C@H](C)[C@@H]1NC(=O)CNC(=O)[C@@H](NC(=O)[C@H](CC(C)C)NC(=O)[C@@H](NC(=O)[C@H](CCCCN)NC(=O)[C@@H]2CCCN2C(=O)[C@H](CC(C)C)NC(=O)[C@H](Cc2ccccc2)NC(=O)[C@H](CCCCN)NC(=O)[C@H](C)NC(=O)[C@H](C)NC(=O)[C@H](CC(C)C)NC(=O)[C@H](CCCNC(=N)N)NC(=O)[C@H](C)NC(=O)[C@@H](NC(=O)[C@H](CC(C)C)NC(=O)[C@@H]2CCCN2C(=O)[C@@H](N)Cc2ccccc2)[C@@H](C)CC)[C@@H](C)CC)CSSC[C@@H](C(=O)O)NC(=O)[C@H](CCCCN)NC(=O)[C@H](CC(N)=O)NC(=O)[C@H](C)NC1=O [OG9c] (H-FPLIARLAAKFLPKILCGIANKC-OH; disulfide 17-23) |  | 64 µM (≈ 160 µg/mL) | 64 µM (≈ 160 µg/mL) |  |  | 16 µM (≈ 40 µg/mL) | 16 µM (≈ 40 µg/mL) | 16 µM (≈ 40 µg/mL) | 16 µM (≈ 40 µg/mL) | 4 µM (≈ 10 µg/mL) | 4 µM (≈ 10 µg/mL) | 8 µM (≈ 20 µg/mL) | 8 µM (≈ 20 µg/mL) | 4 µM (≈ 10 µg/mL) | 4 µM (≈ 10 µg/mL) |  | 8 µM (≈ 20 µg/mL) | 8 µM (≈ 20 µg/mL) | GM MIC, G+ [1]: 8/8/8 μM; GM MIC, G− [1]: 8/8/8 μM; GM MIC, total bacteria [1]: 8/8/8 μM |
| CN[C@H](CC(C)C)C(=O)N[C@H]1C(=O)N[C@@H](CC(N)=O)C(=O)N[C@H]2C(=O)N[C@H]3C(=O)N[C@H](C(=O)N[C@H](C(=O)O)c4cc(O)cc(O)c4-c4cc3ccc4O)[C@H](O)c3ccc(c(Cl)c3)Oc3cc2cc(c3O[C@@H]2O[C@H](CO)[C@@H](O)[C@H](O)[C@H]2O[C@H]2C[C@](C)(N)[C@H](O)[C@H](C)O2)Oc2ccc(cc2Cl)[C@H]1O [Vancomycin] |  |  |  |  |  |  |  |  |  |  |  |  |  |  |  |  |  |  | Ex vivo effect on exponential MRSA cells (MRSA NCTC 12493 [8]): weak inhibiting effect |
| FPLIAGLAANFLPKIL [OG9‐De] | no apparent haemolysis | > 128 µM | > 128 µM |  |  | > 128 µM | > 128 µM | > 128 µM | > 128 µM | > 128 µM | > 128 µM | > 128 µM | > 128 µM | > 128 µM | > 128 µM |  | > 128 µM | > 128 µM |  |
| FPLIARLAAKFLPKIL [OG9c‐De] |  | 16 µM | 16 µM |  |  | 64 µM | 16 µM | 64 µM | 64 µM | 16 µM | 16 µM | 32 µM | 32 µM | 16 µM | 16 µM |  | 16 µM | 16 µM | GM MIC, G+ [1]: 25.4 µM; GM MIC, G− [1]: 20.2 µM; GM MIC, total bacteria [1]: 22.6 µM |
| FPLIARLAAKFLPKIL-NH2 [OG9c‐De‐NH2] |  | 16 µM | 16 µM | 3.6 µM | 3.2 µM | 8 µM | 8 µM | 8 µM | 8 µM | 2/2 μM |  | 4 µM | 4 µM | 2 µM | 2 µM | 4 µM | 2 µM | 2 µM | MBIC (S. aureus ATCC 6538 [9]): 1 µM; MBIC (E. faecalis NCTC 12697 [10]): 16 µM; MBIC (E. coli ATCC 8739 [11]): 16 µM; MBIC (MRSA NCTC 12493 [12]): 1 µM; MBIC (P. aeruginosa ATCC 9027 [13]): 64 µM |
| FPLIAGLAANFLPKIL-NH2 [OG9‐De‐NH2] | no apparent haemolysis | > 128 µM | > 128 µM |  |  | > 128 µM | > 128 µM | > 128 µM | > 128 µM | > 128 µM | > 128 µM | > 128 µM | > 128 µM | > 128 µM | > 128 µM |  | > 128 µM | > 128 µM |  |

From paper PMC10243163, “A frog‐derived antimicrobial peptide as a potential anti‐biofilm agent in combating Staphylococcus aureus skin infection” (Journal of Cellular and Molecular Medicine, 2023)
